In patent US20260035365A1, “1H-PYRROLO[3,2-B]PYRIDINE DERIVATIVES AS IRREVERSIBLE INHIBITORS OF MUTANT EGFR FOR THE TREATMENT OF CANCER” (Bayer Aktiengesellschaft, priority 2022, published 2026):

Legend:
[1] = molecular target: mutEGFR (D770_N771insSVD) (Homo sapiens, UniProt P00533, INS767SVD); experiment: Exon20-mutant-EGFR (D770_N771insSVD) TR-FRET kinase assay; type: biochemical; details: 2 mM ATP, 15 min preincubation
Method in brief: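 GST-fused human EGFR fragment R669-A1210 carrying the SVD insertion, Sf9-expressed, typically 15 pg/μl, was preincubated with compound for 15 min at 22° C in pH 7.0 Hepes/MgCl2 buffer. Phosphorylation was read by HTRF (665/620 nm ratio), normalised to no-inhibitor and no-enzyme controls.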

[2] = molecular target: mutEGFR (D770_N771insNPG, T790); experiment: mutEGFR (D770_N771insNPG, T790) kinase assay; type: biochemical, human
[3] = tested on: BA/F3 (insSVD) cells; experiment: Ba/F3 cell survival assay (Cell Titer-Glo), EGFR-insSVD; type: cell-based; details: Mus musculus, BaF3, 48 h, without IL-3, with EGF
Method in brief: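 Viability read by CellTiter-Glo luminescence after 48 h compound exposure at 37° C, 4000 cells/well. Retrovirally transduced, puromycin-selected Ba/F3 lines carrying EGFR-insSVD ± T790M grew IL-3-free with 10 ng/mL EGF for 2 days beforehand; compound delivered by 100 nL pin.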

Sequence of mutEGFR (D770_N771insNPG, T790) (P00533 with tags, fused parts or gaps INS770NPG limits assumed): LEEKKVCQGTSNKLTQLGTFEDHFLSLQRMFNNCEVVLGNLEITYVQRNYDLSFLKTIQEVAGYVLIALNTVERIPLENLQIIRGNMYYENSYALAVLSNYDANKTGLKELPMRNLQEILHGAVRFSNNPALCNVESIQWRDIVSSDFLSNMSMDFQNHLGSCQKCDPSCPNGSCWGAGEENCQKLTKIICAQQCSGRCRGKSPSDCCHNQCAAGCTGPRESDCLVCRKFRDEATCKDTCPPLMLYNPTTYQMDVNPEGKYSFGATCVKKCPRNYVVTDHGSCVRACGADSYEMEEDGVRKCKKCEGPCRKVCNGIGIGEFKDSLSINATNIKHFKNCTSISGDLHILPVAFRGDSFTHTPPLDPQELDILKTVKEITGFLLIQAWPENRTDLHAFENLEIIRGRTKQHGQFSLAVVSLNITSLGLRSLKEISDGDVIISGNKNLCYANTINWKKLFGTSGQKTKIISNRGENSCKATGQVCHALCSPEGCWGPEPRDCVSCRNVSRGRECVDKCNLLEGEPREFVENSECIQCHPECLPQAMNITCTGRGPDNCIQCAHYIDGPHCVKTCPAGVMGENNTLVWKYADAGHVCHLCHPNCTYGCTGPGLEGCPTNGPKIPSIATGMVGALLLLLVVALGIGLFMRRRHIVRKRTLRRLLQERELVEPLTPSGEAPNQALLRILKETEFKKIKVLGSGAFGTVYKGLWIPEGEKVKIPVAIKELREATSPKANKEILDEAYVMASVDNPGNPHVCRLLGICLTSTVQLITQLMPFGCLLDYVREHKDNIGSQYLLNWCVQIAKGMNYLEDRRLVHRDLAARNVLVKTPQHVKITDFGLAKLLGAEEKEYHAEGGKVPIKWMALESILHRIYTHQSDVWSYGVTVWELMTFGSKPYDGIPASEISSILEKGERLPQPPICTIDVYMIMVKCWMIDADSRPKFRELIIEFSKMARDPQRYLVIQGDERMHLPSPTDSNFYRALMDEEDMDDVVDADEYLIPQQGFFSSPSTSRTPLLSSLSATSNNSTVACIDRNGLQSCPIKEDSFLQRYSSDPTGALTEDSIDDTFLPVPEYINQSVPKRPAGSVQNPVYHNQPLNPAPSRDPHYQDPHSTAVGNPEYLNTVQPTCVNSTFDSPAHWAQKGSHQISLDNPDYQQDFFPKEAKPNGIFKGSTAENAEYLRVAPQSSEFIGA
Sequence of mutEGFR (D770_N771insSVD) (P00533 with tags, fused parts or gaps INS767SVD limits assumed): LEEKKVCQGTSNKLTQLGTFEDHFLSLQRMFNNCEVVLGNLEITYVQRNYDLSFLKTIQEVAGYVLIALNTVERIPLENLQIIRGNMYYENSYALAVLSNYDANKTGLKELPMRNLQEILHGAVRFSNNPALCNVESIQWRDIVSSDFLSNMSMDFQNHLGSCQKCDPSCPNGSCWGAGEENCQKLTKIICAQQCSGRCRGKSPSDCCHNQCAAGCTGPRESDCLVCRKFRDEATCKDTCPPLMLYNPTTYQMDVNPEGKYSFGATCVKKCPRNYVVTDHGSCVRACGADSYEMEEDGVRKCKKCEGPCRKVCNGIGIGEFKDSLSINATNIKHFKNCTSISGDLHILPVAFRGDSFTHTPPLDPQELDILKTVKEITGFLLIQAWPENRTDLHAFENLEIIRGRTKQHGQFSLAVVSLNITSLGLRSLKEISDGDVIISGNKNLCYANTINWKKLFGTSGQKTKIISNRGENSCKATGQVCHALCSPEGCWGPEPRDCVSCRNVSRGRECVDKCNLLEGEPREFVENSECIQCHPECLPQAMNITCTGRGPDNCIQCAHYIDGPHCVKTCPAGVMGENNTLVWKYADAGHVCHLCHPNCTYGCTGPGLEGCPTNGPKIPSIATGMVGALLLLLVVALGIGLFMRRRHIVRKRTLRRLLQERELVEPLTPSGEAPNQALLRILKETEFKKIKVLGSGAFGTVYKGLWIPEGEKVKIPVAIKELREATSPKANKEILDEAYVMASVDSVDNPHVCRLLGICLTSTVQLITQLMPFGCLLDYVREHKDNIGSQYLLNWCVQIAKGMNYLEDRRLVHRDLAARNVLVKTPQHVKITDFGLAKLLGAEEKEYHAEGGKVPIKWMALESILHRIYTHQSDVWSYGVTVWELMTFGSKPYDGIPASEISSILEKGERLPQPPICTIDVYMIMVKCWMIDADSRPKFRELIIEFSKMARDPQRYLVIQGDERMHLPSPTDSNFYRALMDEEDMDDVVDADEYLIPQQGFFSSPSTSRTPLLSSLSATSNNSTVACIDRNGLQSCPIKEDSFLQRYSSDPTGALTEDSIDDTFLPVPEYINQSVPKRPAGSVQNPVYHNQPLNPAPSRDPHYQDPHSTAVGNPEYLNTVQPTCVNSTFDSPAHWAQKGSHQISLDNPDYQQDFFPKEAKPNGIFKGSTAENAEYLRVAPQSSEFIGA

Row | SMILES | IC50 [1] [nM] | IC50 [2] [nM] | IC50 [3] [nM]
1 | C=CC(=O)N(C)CCOc1cnccc1-c1[nH]c2cccnc2c1-c1ccccc1CC [Example 53, N-[2-({4-[3-(2-ethylphenyl)-1H-pyrrolo[3,2-b]pyridin-2-yl]pyridin-3-yl}oxy)ethyl]-N-methylprop-2-enamide] | 112 | 744 | 3270
2 | C=CC(=O)N1CCC(Oc2cnccc2-c2[nH]c3cccnc3c2-c2cc(Cl)ccc2F)C1 (racemic) [Example 127, 1-[(3RS)-3-({4-[3-(5-chloro-2-fluorophenyl)-1H-pyrrolo[3,2-b]pyridin-2-yl]pyridin-3-yl}oxy)pyrrolidin-1-yl]prop-2-en-1-one] | 25.4 | 97.6 | 691
3 | C=CC(=O)N(C)CCOc1cnccc1-c1[nH]c2cccnc2c1-c1cccc(CC)c1 [Example 45, N-[2-({4-[3-(3-ethylphenyl)-1H-pyrrolo[3,2-b]pyridin-2-yl]pyridin-3-yl}oxy)ethyl]-N-methylprop-2-enamide] | 24.6 | 76.3 | 1280
4 | C=CC(=O)N(C)CCOc1cnccc1-c1[nH]c2cccnc2c1-c1cccc(OC(F)(F)F)c1 [Example 58, N-methyl-N-{2-[(4-{3-[3-(trifluoromethoxy)phenyl]-1H-pyrrolo[3,2-b]pyridin-2-yl}pyridin-3-yl)oxy]ethyl}prop-2-enamide] | 249 | 1160 | 6280
5 | C=CC(=O)N(C)CCOc1cnccc1-c1[nH]c2cccnc2c1-c1cc(C)cc(F)c1 [Example 50, N-[2-({4-[3-(3-fluoro-5-methylphenyl)-1H-pyrrolo[3,2-b]pyridin-2-yl]pyridin-3-yl}oxy)ethyl]-N-methylprop-2-enamide] | 63.7 | 131 | 1770
6 | C=CS(=O)(=O)N1CCC(Oc2cnccc2-c2[nH]c3cccnc3c2-c2cc(C)ccc2F)C1 (racemic) [Example 126, 2-(3-{[(3RS)-1-(ethenesulfonyl)pyrrolidin-3-yl]oxy}pyridin-4-yl)-3-(2-fluoro-5-methylphenyl)-1H-pyrrolo[3,2-b]pyridine] | 13.8 | 39.8 | 807
7 | C=CC(=O)N1CCC[C@H]1COc1cnccc1-c1[nH]c2cccnc2c1-c1cc(C(F)(F)F)ccc1F [Example 76, 1-[(2S)-2-{[(4-{3-[2-fluoro-5-(trifluoromethyl)phenyl]-1H-pyrrolo[3,2-b]pyridin-2-yl}pyridin-3-yl)oxy]methyl}pyrrolidin-1-yl]prop-2-en-1-one] | 2.78 | 9.46 | 97.9
8 | C=CC(=O)N1CCC(Oc2cnccc2-c2[nH]c3cccnc3c2-c2ccccc2)C1 (racemic) [Example 116, 1-[(3RS)-3-{[4-(3-phenyl-1H-pyrrolo[3,2-b]pyridin-2-yl)pyridin-3-yl]oxy}pyrrolidin-1-yl]prop-2-en-1-one] | 52.4 | 215 | 1520
9 | CC#CC(=O)N1CCC[C@H]1COc1cnccc1-c1[nH]c2cccnc2c1-c1ccccc1 [Example 94, 1-[(2S)-2-({[4-(3-phenyl-1H-pyrrolo[3,2-b]pyridin-2-yl)pyridin-3-yl]oxy}methyl)pyrrolidin-1-yl]but-2-yn-1-one] | 365 | > 1630 | 2440
10 | C=CC(=O)N1CC[C@@H]1COc1cnccc1-c1[nH]c2cccnc2c1-c1ccccc1 (single isomer, unassigned) [Example 140] | 0.3 | 1.33 | 9.73
11 | C=CS(=O)(=O)N(C)CCOc1cnccc1-c1[nH]c2cccnc2c1-c1cc(C)cc(F)c1 [Example 65, N-[2-({4-[3-(3-fluoro-5-methylphenyl)-1H-pyrrolo[3,2-b]pyridin-2-yl]pyridin-3-yl}oxy)ethyl]-N-methylethenesulfonamide] | 2.48 | 7.22 | 267
12 | C=CS(=O)(=O)N1CC[C@@H]1COc1cnccc1-c1[nH]c2cccnc2c1-c1ccccc1 (single isomer, unassigned) [Example 142] | < 0.0725 | 0.262 | 16
13 | O=C(/C=C/CN1CCCC1)N1CCC[C@H]1COc1cnccc1-c1[nH]c2cccnc2c1-c1ccccc1 [Example 99, (2E)-1-[(2S)-2-({[4-(3-phenyl-1H-pyrrolo[3,2-b]pyridin-2-yl)pyridin-3-yl]oxy}methyl)pyrrolidin-1-yl]-4-(pyrrolidin-1-yl)but-2-en-1-one] | 2.32 | 10.8 | 115
14 | C#CC(=O)N1CCC(Oc2cnccc2-c2[nH]c3cccnc3c2-c2cc(C)ccc2F)C1 (racemic) [Example 125, 1-[(3RS)-3-({4-[3-(2-fluoro-5-methylphenyl)-1H-pyrrolo[3,2-b]pyridin-2-yl]pyridin-3-yl}oxy)pyrrolidin-1-yl]prop-2-yn-1-one] | 80.8 | 219 | 1030
15 | C#CC(=O)N1CCC(Oc2cnccc2-c2[nH]c3cccnc3c2-c2cccc(Cl)c2)C1 (racemic) [Example 120, 1-[(3RS)-3-({4-[3-(3-chlorophenyl)-1H-pyrrolo[3,2-b]pyridin-2-yl]pyridin-3-yl}oxy)pyrrolidin-1-yl]prop-2-yn-1-one] | 38.5 | 98.7 | 1190
16 | C=CS(=O)(=O)N1CCC1(C)COc1cnccc1-c1[nH]c2cccnc2c1-c1cccc(C(F)(F)F)c1 (racemic) [Example 148, 2-(3-{[(2RS)-1-(ethenesulfonyl)-2-methylazetidin-2-yl]methoxy}pyridin-4-yl)-3-[3-(trifluoromethyl)phenyl]-1H-pyrrolo[3,2-b]pyridine] | 105 | 627 | 2780
17 | C=CS(=O)(=O)N(C)CCOc1cnccc1-c1[nH]c2cccnc2c1-c1cccc(C(C)C)c1 [Example 70, N-methyl-N-{2-[(4-{3-[3-(propan-2-yl)phenyl]-1H-pyrrolo[3,2-b]pyridin-2-yl}pyridin-3-yl)oxy]ethyl}ethenesulfonamide] | 5.33 | 46.6 | 749
18 | C=CC(=O)N1CCC[C@H]1COc1cnccc1-c1[nH]c2cccnc2c1-c1cccc(Cl)c1Cl [Example 85, 1-{(2S)-2-[({4-[3-(2,3-dichlorophenyl)-1H-pyrrolo[3,2-b]pyridin-2-yl]pyridin-3-yl}oxy)methyl]pyrrolidin-1-yl}prop-2-en-1-one] | 0.5 | 3.64 | 55.7
19 | C=CS(=O)(=O)N(C)CCOc1cnccc1-c1[nH]c2cccnc2c1-c1cc(C)ccc1F [Example 64, N-[2-({4-[3-(2-fluoro-5-methylphenyl)-1H-pyrrolo[3,2-b]pyridin-2-yl]pyridin-3-yl}oxy)ethyl]-N-methylethenesulfonamide] | 1.47 | 2.21 | 92.9
20 | C=CS(=O)(=O)N1CCC[C@H]1COc1cnccc1-c1[nH]c2cccnc2c1-c1ccc(F)c(OC(F)(F)F)c1 [Example 108, 2-(3-{[(2S)-1-(ethenesulfonyl)pyrrolidin-2-yl]methoxy}pyridin-4-yl)-3-[4-fluoro-3-(trifluoromethoxy)phenyl]-1H-pyrrolo[3,2-b]pyridine] | 0.557 | 2.41 | 70.4
